Results published in patent US20030125336A1, “Hydrohalide salts of an HIV protease inhibitor” (priority 2001, published 2003).

Experiments:
[1] = solubility in aqueous solutions; assay type: physicochemical; conditions: aqueous solutions including dilute HCl (gastric acid) solutions
viral construct V-18 = assay: cell spread assay (WO 01/05230), viral construct V-18; assay type: cell-based, HIV
Text: (§1) Compound A and its hydrohalide salts are inhibitors of HIV protease, including mutant forms thereof that are resistant to known protease inhibitors.

wild-type HIV protease = wild-type HIV protease (Human immunodeficiency virus type 1 group M subtype B, UniProt P04585); assay: biochemical
[2] = target: HIV protease mutant enzyme Q-60 (Human immunodeficiency virus type 1, UniProt P04585); assay: inhibition of microbial expressed HIV protease (WO 01/05230), mutant enzyme Q-60; assay type: biochemical
viral construct K-60 = assay: cell spread assay (WO 01/05230), viral construct K-60; assay type: cell-based, HIV
Text: as §1

[3] = oral absorption and pharmacokinetics in animal models; assay type: in vivo
[4] = system: wild-type viral construct; assay: cell spread assay (WO 01/05230), wild-type viral construct; assay type: cell-based, HIV
Text: as §1

[5] = target: HIV protease mutant enzyme V-18 (Human immunodeficiency virus type 1, UniProt P04585); assay: inhibition of microbial expressed HIV protease (WO 01/05230), mutant enzyme V-18; assay type: biochemical
[6] = target: HIV protease mutant enzyme K-60 (Human immunodeficiency virus type 1, UniProt P04585); assay: inhibition of microbial expressed HIV protease (WO 01/05230), mutant enzyme K-60; assay type: biochemical
viral construct Q60 = assay: cell spread assay (WO 01/05230), viral construct Q60; assay type: cell-based, HIV
Text: as §1

COc1cncc(-c2cnc(C(C)(C)N3CCN(C[C@@H](O)C[C@@H](Cc4ccccc4)C(=O)N[C@H]4c5ccccc5OC[C@H]4O)[C@H](C(=O)NCC(F)(F)F)C3)o2)c1 [Compound A, (αR,γS,2S)-N-[(3S,4S)-3,4-dihydro-3-hydroxy-2H-1-benzopyran-4-yl]-y-hydroxy-4-[1-[5-(5-methoxy-3-pyridinyl)-2-oxazolyl]-1-methylethyl]-α-(phenylmethyl)-2-[[(2,2,2-trifluoroethyl)amino]carbonyl]-1-piperazinepentanamide]
solubility [1]: relatively low solubility
CIC95 (viral construct V-18): below 125 nM
IC50 (wild-type HIV protease): < 1 nM
potency compared with indinavir (wild-type HIV protease; HIV protease inhibition assay): significantly more potent
IC50 [2]: < 5 nM
CIC95 (viral construct K-60): below 125 nM
oral absorption [3]: poor oral absorption
potency compared with indinavir ([4]; cell spread assay): significantly more potent
CIC95 ([4]; wild-type viral construct): below 50 nM
IC50 [5]: < 5 nM
IC50 [6]: < 5 nM
CIC95 (viral construct Q60): below 125 nM
